Measurements from paper PMC4961458 (eLife, 2016).

Tests used:
PR-B = biological target: T1, PR-B (Homo sapiens, UniProt P06401); assay: PR-B transcriptional reporter assay, agonist mode (HEPG2 cells); type: cell-based; details: % of maximal R5020-stimulated activity
T1 construct: cloning full-length human PRb into pCDNA; expressed in transfected cells; host or cells: HEPG2
T1 sequence (P06401 1-933): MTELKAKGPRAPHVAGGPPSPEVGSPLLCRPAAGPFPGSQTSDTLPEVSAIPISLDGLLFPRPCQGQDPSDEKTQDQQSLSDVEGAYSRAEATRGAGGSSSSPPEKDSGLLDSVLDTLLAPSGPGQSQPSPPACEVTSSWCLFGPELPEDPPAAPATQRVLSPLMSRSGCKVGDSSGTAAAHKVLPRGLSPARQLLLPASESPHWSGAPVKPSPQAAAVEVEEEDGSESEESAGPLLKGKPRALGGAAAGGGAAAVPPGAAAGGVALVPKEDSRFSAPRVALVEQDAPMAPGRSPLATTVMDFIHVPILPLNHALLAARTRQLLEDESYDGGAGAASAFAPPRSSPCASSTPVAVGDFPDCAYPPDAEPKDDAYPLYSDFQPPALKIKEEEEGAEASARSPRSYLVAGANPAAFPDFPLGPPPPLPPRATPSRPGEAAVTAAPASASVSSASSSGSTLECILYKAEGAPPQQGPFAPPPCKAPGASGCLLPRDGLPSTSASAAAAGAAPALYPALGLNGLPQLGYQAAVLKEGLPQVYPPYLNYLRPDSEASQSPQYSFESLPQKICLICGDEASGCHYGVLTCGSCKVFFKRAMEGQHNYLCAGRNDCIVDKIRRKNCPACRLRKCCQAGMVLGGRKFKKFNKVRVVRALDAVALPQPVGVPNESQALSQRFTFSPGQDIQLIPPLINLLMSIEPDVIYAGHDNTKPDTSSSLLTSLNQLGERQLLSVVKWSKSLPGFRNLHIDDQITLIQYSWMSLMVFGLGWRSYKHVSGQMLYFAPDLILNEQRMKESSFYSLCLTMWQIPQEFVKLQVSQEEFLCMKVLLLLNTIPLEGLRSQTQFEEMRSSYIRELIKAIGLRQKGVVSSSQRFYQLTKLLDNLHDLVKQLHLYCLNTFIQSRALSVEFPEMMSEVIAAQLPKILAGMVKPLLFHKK

GR = biological target: T2, GR (Homo sapiens, UniProt P04150); assay: GR transcriptional reporter assay, agonist mode (CV1 cells); type: cell-based; details: CV-1; % of maximal dexamethasone-stimulated activity
T2 sequence (P04150 1-777): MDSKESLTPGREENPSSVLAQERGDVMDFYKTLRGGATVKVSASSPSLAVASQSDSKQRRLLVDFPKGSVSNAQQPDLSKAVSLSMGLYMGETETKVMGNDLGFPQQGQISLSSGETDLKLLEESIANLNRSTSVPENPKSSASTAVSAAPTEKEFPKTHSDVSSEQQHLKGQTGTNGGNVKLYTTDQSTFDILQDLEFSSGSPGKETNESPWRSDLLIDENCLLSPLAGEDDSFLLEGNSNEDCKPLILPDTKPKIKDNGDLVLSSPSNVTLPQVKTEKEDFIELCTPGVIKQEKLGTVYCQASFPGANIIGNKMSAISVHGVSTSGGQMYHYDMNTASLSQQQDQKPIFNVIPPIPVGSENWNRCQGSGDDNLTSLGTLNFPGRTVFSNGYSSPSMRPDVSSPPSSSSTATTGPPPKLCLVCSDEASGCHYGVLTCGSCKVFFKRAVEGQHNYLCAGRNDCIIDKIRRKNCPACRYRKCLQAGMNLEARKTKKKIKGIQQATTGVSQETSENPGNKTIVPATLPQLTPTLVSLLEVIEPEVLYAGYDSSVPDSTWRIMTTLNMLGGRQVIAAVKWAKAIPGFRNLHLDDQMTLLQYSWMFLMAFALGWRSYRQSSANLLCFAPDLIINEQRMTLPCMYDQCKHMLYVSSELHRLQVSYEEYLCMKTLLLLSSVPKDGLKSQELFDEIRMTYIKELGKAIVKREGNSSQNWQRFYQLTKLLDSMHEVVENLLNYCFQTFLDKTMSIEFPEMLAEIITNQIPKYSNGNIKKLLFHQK
Method: CV1 cells were maintained in MEM supplemented with 10% FBS. Transcriptional assays were performed by seeding 12 mL of cells at a density of 250,000 cells/mL into a T-75 cell culture flask in MEM supplemented with 5% charcoal-stripped serum and allowed to attach overnight. Cells were transiently transfected using FuGENE 6 (Roche Applied Science). […] Transfected cells were incubated overnight then split into four 96-well tissue culture plates and incubated for 4 hr followed by compound addition. […] The final agonist concentration used in the antagonist assays was 10 nM.

MCF7 tumors = assay: MCF7 xenograft efficacy; type: in vivo, mice; details: […]60 day E2 pellets; GDC-0810 100 mg/kg/day p.o.; fulvestrant clinically relevant dose (50 then 25 mg/kg s.c.) and 200 mg/kg 3 times per week; 28 days
uterus of juvenile rats = assay: Juvenile rat uterus assays; type: in vivo, Sprague Dawley rats; details: for Uterine wet weight: tamoxifen 60 mg/kg orally once a day for 3 days, GDC-0810 0.1 or 10 mg/kg, relative to vehicle control; for Uterine wet weight / Endometrial epithelial cell morphology (histology, endometrial cell height): fulvestrant 50 mg/kg; for Endometrial epithelial cell morphology (histology, endometrial cell height): tamoxifen 60 mg/kg, GDC-0810 0.1 and 10 mg/kg
From the text: […] Rats were euthanized 4 hr after the final dose. Uteri were then dissected, weighed and fixed for histological examination. A small portion of tissue was saved prior to fixation for mRNA isolation and gene expression analysis.
H&E stained sections from bilateral representative uterine horn cross-sections were examined from two animals treated with the compounds shown. Endometrial cell height was digitally measured from the basement membrane to the apical (luminal) surface (orange line), using a digitally scanned image at 20X magnification. Obliquely cut areas were avoided. Three digital measurements were taken from each section (n = 6).
Estrogen receptor was detected using the mouse monoclonal anti-ER (clone 1D5, Dako), incubated for 60 min at RT at a dilution of 0.5 µg/ml, and visualized after secondary rabbit anti-mouse antibody binding with Powervision DAB (Leica Powersystems). H-scores were estimated manually, incorporating both intensity and percentage of positive nuclei, using the following formula: (0 x% negative)+(1 x% weak)+(2 x% moderate)+(3 x% strong)

CC/C(=C(\c1ccc(O)cc1)c1ccc(OCCN(C)C)cc1)c1ccccc1 [4-OH Tam, 4-hydroxytamoxifen]
Emax (PR-B): 0.39 ± 0.23%
Emax (GR): 1.99 ± 1.52%

CC/C(=C(/c1ccc(/C=C/C(=O)O)cc1)c1ccc2[nH]ncc2c1)c1ccc(F)cc1Cl [GDC-0810]
Tumor growth response, MCF7 xenograft (MCF7 tumors): caused tumor regressions
ER levels in the uterus (IHC) (uterus of juvenile rats): only modestly reduces ER levels
Uterine wet weight (uterus of juvenile rats): did not significantly alter uterine wet
Endometrial epithelial cell morphology (histology, endometrial cell height) (uterus of juvenile rats): induced a cuboidal to columnar morphological change
Emax (PR-B): 0.35 ± 0.31%
Emax (GR): 1.78 ± 1.21%

C[C@]12CC[C@@H]3c4ccc(O)cc4C[C@@H](CCCCCCCCC[S+]([O-])CCCC(F)(F)C(F)(F)F)[C@H]3[C@@H]1CC[C@@H]2O (stereo partly drawn) [Fulvestrant]
Tumor growth response, MCF7 xenograft (MCF7 tumors): only modest tumor growth inhibition
ER levels in the uterus (IHC) (uterus of juvenile rats): robustly depletes ER
Uterine wet weight (uterus of juvenile rats): significant decrease in uterine weight
Endometrial epithelial cell morphology (histology, endometrial cell height) (uterus of juvenile rats): remained cuboidal
